The text below walks through data of patent US9193687B2 (priority 2007, dated 2015).

The subject of series [1] is CCRF-CEM human lymphoblastic leukemia cells. Nature of the series: cells. The conditions noted are these: read-out: Cytotoxicity IC50, CCRF-CEM.
The subject of series [2] is Human colon carcinoma HCT-116 cells. Nature of the series: cells.
Series [3] concerns Human mammary carcinoma (MX-1) tumor cells. Nature of the series: In vitro cytotoxicity, SRB assay, 72-hr incubation. As to conditions: Homo sapiens, 72 h, read-out: Cytotoxicity IC50, MX-1.
In series [4] the test system is human mammary carcinoma MX-1 xenograft. Nature of the series: Antitumor therapeutic effect against MX-1 xenograft in nude mice. The format is in vivo. As to conditions: for Therapeutic effect: complete tumor remission (CR), mice with CR/total and day / Maximal body-weight loss (%): i.v. injection; for Therapeutic effect: complete tumor remission (CR), mice with CR/total and day: treatment from Day 8, dose and schedule per compound as in Table 3 (30-150 mg/kg); for Maximal body-weight loss (%): dose and schedule per compound as in Table 3. On the procedure: Athymic nude mice bearing the nu/nu gene were obtained from NCI, Frederick, Md. and used for all human tumor xenografts. Male nude mice 6 weeks or older weighing 20-24 g or more were used. Compounds were administered via the tail vein for i.v. injection or infusion as described previously.^64 A typical formulation for chemotherapeutic studies for each drug was dissolved in DSMO to make a 25 mg/ml fresh solution, 0.4 ml of this solution was mixed with 0.3 ml of Tween 80, plus 1.3 ml to make 2 ml of 5 mg/ml solution. Bolus injection volume was 0.1-0.2 ml per mouse. Tumor volume was assessed by measuring length×width×height (or width) by using a caliper. For tumor-bearing nude mice during the course of the experiment, the body weight refers to total weight minus the weight of the tumor. All animal studies were conducted in accordance with the guidelines for the National Institute of Health Guide for the Care and Use of Animals and the protocol approved by the Institutional Animal Care and Use Committee.
The therapeutic effects of a drug against human tumor xenografts in nude mice, under the optimal therapeutic conditions but without any lethality due to drug toxicity, the following degrees of therapeutic effects are defined and calculated by the following formula: […]
where • T0 is the initial tumor size (in mm^3) at beginning of drug treatment; • Tc is tumor size of untreated control group on a given date; and • Tx is tumor size of the drug treated group on a given date.
[formula] • Tumor disappearance (complete remission or CR) is defined by the effect where • [Tx=0] for a period of time (in days) for a proportion of animals (NCR/N), where • N is the total number of animals in the group, and NCR is the number of mice in the group that achieved CR. • Tumor relapse is quantitatively calculated by • [The Day tumor relapsed (Drelp)—The Day CR achieved (DCR)] (Eq. 3) for a proportion of animals (Nrelp/N) where N is the total number of animals in the group, and Nrelp is the number of the mice in the group that relapsed. • The log cell kill (LCK) of the tumor tissue after a given chemotherapy that reached CR is estimated by: LCK=log [2^(Tumor remission in days/Tumor doubling time in days)] (Eq. 4)
Athymic nude mice bearing the nu/nu gene were used for human breast tumor MX-1 xenograft (FIGS. 3 and 4) and human brain glioma U87 GM xenograft (FIG. 5). Nude mice were obtained from National Cancer Institute, Frederick, Md. Male mice 6 weeks old or older weighing 22 g or more were used for experiments with subcutaneous tumor inoculation as described previously.^67 Drug was administrated via the tail vein by iv injection. Tumor volumes were assessed by measuring length×width×height (or width) by using caliper. Vehicle used was 20 μL DMSO in 180 μL saline. All animal studies were conducted in accordance with the guidelines of the U.S. National Institutes of Health Guide for the Care and Use of Animals and the protocol approved by the Institutional Animal Care and Use Committee.

The next series deals with CCRF-CEM/Taxol. Nature of the series: In vitro cytotoxicity, XTT assay, taxol-resistant subline. The conditions noted are these: Homo sapiens, CCRF-CEM, 72 h, read-out: Cytotoxicity IC50, CCRF-CEM/Taxol. In general terms: Formazan colour is commonly taken as a measure of viable cells.
A further series has as its system prostate cancer (PC3). Nature of the series: cells. As to conditions: Homo sapiens, read-out: Cytotoxicity IC50, PC3.
For another series, the system named is lung cancer H460. Nature of the series: cells. The conditions noted are these: Homo sapiens, NCI-H460, read-out: Cytotoxicity IC50, H460.
Another series concerns lung cancer H1299. Nature of the series: cells. As to conditions: Homo sapiens, NCI-H1299, read-out: Cytotoxicity IC50, H1299.
Setting [5] is: HCT-116, 72 h, read-out: Cytotoxicity IC50, HCT-116.
Setting [6] is: HCT-116, read-out: Cytotoxicity IC50, HCT-116.

Values joined by “and” are separate entries in the source; they are usually repeats but may differ in a detail not shown here. Equal entries are not always repeated. Where two headings read alike, the source gives them in different places.

With `Cc1cccc2c(Nc3cc(CO)cc(NC(=O)Oc4ccc(N(CCCl)CCCl)cc4)c3)c3ccccc3nc12` [BO-1063, [3-hydroxymethyl-5-(4-methylacridin-9-ylamino)phenyl]carbamic acid 4-[bis(2-chloroethyl)-amino]phenyl ester], the IC50 was determined as 0.07 µM in series [1] (72 h), 0.44 µM in series [2] (setting [5]), 0.08 µM in series [3] and 0.1 µM in the series with CCRF-CEM/Taxol. The “Remark (dose tolerability)” value in series [4] (BO-1053 70 mg/kg Q2Dx5, BO-1063 and BO-1065 100 mg/kg QDx3, i.v.) is given as “Too high dose”.

Regarding `Cc1ccc(Nc2c3ccccc3nc3c(C)cccc23)cc1NC(=O)Oc1ccc(N(CCCl)CCCl)cc1` [BO-1064, [2-methyl-5-(4-methylacridin-9-ylamino)phenyl]-carbamic acid 4-[bis(2-chloroethyl)amino]phenyl ester], the IC50 in series [1] (72 h) stood at 0.13 µM; in series [2] (setting [5]) it was 0.61 µM; in series [3], 0.29 µM; in the series with CCRF-CEM/Taxol, 0.17 µM. Also, the “Therapeutic effect: complete tumor remission (CR), mice with CR/total and day” value in series [4] was “achieved complete tumor remission and 1/1 CR on D22”. Besides, the “Maximal body-weight loss (%)” value in series [4] was “Died of”.

For the compound `COc1cc(NC(=O)Oc2ccc(N(CCCl)CCCl)cc2)cc(Nc2c3ccccc3nc3ccccc23)c1` [BO-1066, [3-(acridin-9-ylamino)-5-methoxyphenyl]carbamic acid 4-[bis(2-chloroethyl)amino]phenyl ester], the IC50 in series [1] (72 h) came out at 0.21 µM; in series [2] (setting [5]) it was 1.71 µM; in series [3], 0.34 µM; in the series on CCRF-CEM/Taxol it was 0.31 µM. Further, in series [4], the “Therapeutic effect: complete tumor remission (CR), mice with CR/total and day” value was “achieved complete tumor remission and 1/1 CR on D22”. In addition, the “Maximal body-weight loss (%)” value in series [4] was determined as 13%.

As to `Cc1cc(NC(=O)Nc2ccc(N(CCCl)CCCl)cc2)cc(Nc2c3ccccc3nc3ccccc23)c1` [BO-1079, 1-[3-(acridin-9-ylamino)-5-methylphenyl]-3-{4-[bis(2-chloroethyl)amino]phenyl}urea], the IC50 is 0.14 µM in series [1] (72 h), 0.8 µM in series [2] (setting [5]), 0.53 µM in series [3] and 0.38 µM with CCRF-CEM/Taxol. In series [4] (75 mg/kg, QDx8, i.v., 1/1 mouse), the “Therapeutic effect: tumor growth suppression” value was 1/1, >99% tumor. Moreover, in series [4], the “Maximal body-weight loss (%)” value is given as 9%.

Turning to `O=C(CCN1CCCCC1)Nc1ccc(NC(=O)Nc2ccc(N(CCCl)CCCl)cc2)cc1` [BO-2057], the IC50 was found to be 2.28 µM in the series on prostate cancer (PC3), 1.58 µM in the series with lung cancer H460 and 3.03 µM in the series with lung cancer H1299.

For the compound `CCN(CC)CCC(=O)Nc1ccc(NC(=O)Nc2ccc(N(CCCl)CCCl)cc2)cc1` [BO-2073, N-(4-(3-(4-(Bis(2-chloroethyl)amino)phenyl)ureido)-phenyl)-3-(diethylamino)-propanamide], the IC50 in series [1] came to 0.3 µM; in the series on prostate cancer (PC3), 2.47 µM; in series [2] (setting [6]), 2.09 µM; in the series with lung cancer H460, 1.83 µM; in the series on lung cancer H1299, 10.3 µM.

As for `O=C(CCN1CCOCC1)Nc1ccc(NC(=O)Nc2ccc(N(CCCl)CCCl)cc2)cc1` [BO-2074], the IC50 in series [1] is 1.06 µM; with prostate cancer (PC3), 9.74 µM; in series [2] (setting [6]), 7.02 µM; in the series on lung cancer H460, 3.95 µM; in the series on lung cancer H1299 it was 15.2 µM.

Turning to `O=C(CCN1CCCC1)Nc1ccc(NC(=O)Nc2ccc(N(CCCl)CCCl)cc2)cc1` [BO-2075], the IC50 in series [1] is 0.28 µM; with prostate cancer (PC3), 3.48 µM; in series [2] (setting [6]), 1.48 µM; in the series with lung cancer H460 it was 1.03 µM; with lung cancer H1299 it was 6.43 µM.

As for `CN(C)CCC(=O)Nc1cccc(NC(=O)Nc2ccc(N(CCCl)CCCl)cc2)c1` [BO-2091, N-(3-(3-(4-(bis(2-chloroethyl)amino)-phenyl)ureido)phenyl)-3-(dimethylamino)-propanamide], the IC50 in series [1] was 0.52 µM; in the series on prostate cancer (PC3), 13.5 µM; in series [2] (setting [6]), 3.28 µM; in the series with lung cancer H460, 16.8 µM; in the series with lung cancer H1299, 8.99 µM.

As for `O=C(CN1CCCCC1)Nc1ccc(NC(=O)Nc2ccc(N(CCCl)CCCl)cc2)cc1` [BO-2092, N-(4-(3-(4-(bis(2-chloroethyl)amino)phenyl)ureido)-phenyl)-2-(piperidin-1-yl)-acetamide], the IC50 in series [1] was 0.31 µM; with prostate cancer (PC3) it was 2.24 µM; in series [2] (setting [6]) it was 1.5 µM; with lung cancer H460 it was 1.05 µM; with lung cancer H1299, 2.52 µM.

Take `O=C(CN1CCCC1)Nc1ccc(NC(=O)Nc2ccc(N(CCCl)CCCl)cc2)cc1` [BO-2093]: the IC50 in series [1] is 0.26 µM; in the series with prostate cancer (PC3), 3.52 µM; with lung cancer H460 it was 0.95 µM; with lung cancer H1299, 3.41 µM.

Consider `CCN(CC)CC(=O)Nc1ccc(NC(=O)Nc2ccc(N(CCCl)CCCl)cc2)cc1` [BO-2094, N-(4-(3-(4-(Bis(2-chloroethyl)amino)phenyl)ureido)-phenyl)-2-(diethylamino)-acetamide], for which the IC50 with prostate cancer (PC3) was found to be 3.57 µM; in series [2] (setting [6]), 1.7 µM; in the series on lung cancer H460, 0.93 µM; in the series with lung cancer H1299, 3.43 µM.

Turning to `CN(C)CC(=O)Nc1ccc(NC(=O)Nc2ccc(N(CCCl)CCCl)cc2)cc1` [BO-2095], the IC50 in series [1] came to 0.29 µM; in the series with prostate cancer (PC3), 7.33 µM; in series [2] (setting [6]) it was 2.54 µM; in the series on lung cancer H460 it was 1.21 µM; in the series with lung cancer H1299 it was 5.36 µM.

`O=C(CN1CCOCC1)Nc1ccc(NC(=O)Nc2ccc(N(CCCl)CCCl)cc2)cc1` [BO-2096]: the IC50 in series [1] worked out at 1.13 µM; in the series with prostate cancer (PC3), 16 µM; in series [2] (setting [6]), 6.67 µM; with lung cancer H460, 4.74 µM; with lung cancer H1299, 18.6 µM.

With `O=C(CN1CCC(N2CCCCC2)CC1)Nc1ccc(NC(=O)Nc2ccc(N(CCCl)CCCl)cc2)cc1` [BO-2117], the IC50 came out at 1.14 µM in series [1]; 7.24 µM with prostate cancer (PC3); 4.24 µM in series [2] (setting [6]); 14.9 µM in the series with lung cancer H460; 14.4 µM in the series on lung cancer H1299.

`O=C(CCN1CCC(N2CCCCC2)CC1)Nc1ccc(NC(=O)Nc2ccc(N(CCCl)CCCl)cc2)cc1` [BO-2118]: the IC50 in series [1] was determined as 0.72 µM; in the series on prostate cancer (PC3), 30 µM; in series [2] (setting [6]) it was 11.1 µM; with lung cancer H460 it was 14.5 µM; in the series with lung cancer H1299 it was 36 µM.

In the case of `CCN(CC)CCC(=O)Nc1cccc(NC(=O)Nc2ccc(N(CCCl)CCCl)cc2)c1` [BO-2120], the IC50 in series [1] is 0.86 µM; in the series on prostate cancer (PC3), 13 µM; in series [2] (setting [6]), 3.21 µM; in the series on lung cancer H460, 6.79 µM; with lung cancer H1299, 5.77 µM.

For `O=C(CCN1CCCC1)Nc1cccc(NC(=O)Nc2ccc(N(CCCl)CCCl)cc2)c1` [BO-2121], the IC50 in series [1] stood at 0.67 µM; in the series on prostate cancer (PC3), 10.3 µM; in series [2] (setting [6]) it was 5.11 µM; in the series on lung cancer H460 it was 9.84 µM; with lung cancer H1299, 4.33 µM.

For the compound `O=C(CCN1CCCCC1)Nc1cccc(NC(=O)Nc2ccc(N(CCCl)CCCl)cc2)c1` [BO-2147, N-(3-(3-(4-(Bis(2-chloroethyl)amino)phenyl)ureido)-phenyl)-3-(piperidin-1-yl)-propanamide], the IC50 in series [1] was determined as 0.39 µM; in the series on prostate cancer (PC3) it was 5.73 µM; in series [2] (setting [6]), 3.51 µM; in the series with lung cancer H460, 7.88 µM; in the series on lung cancer H1299, 4.63 µM.

`O=C(CCN1CCOCC1)Nc1cccc(NC(=O)Nc2ccc(N(CCCl)CCCl)cc2)c1` [BO-2148]: the IC50 in series [1] stood at 3.1 µM; with prostate cancer (PC3) it was 35.5 µM; in series [2] (setting [6]), 16.8 µM; with lung cancer H460 it was 38.5 µM; in the series on lung cancer H1299, 15.9 µM.
